Assay [1] addresses T1, p38 alpha (Homo sapiens, UniProt Q16539).
T1 construct: purchased Invitrogen PV3304
Kind of assay: P38 alpha enzyme inhibition assay (Alphascreen kinase activity assay). The assay is classed as biochemical. As to conditions: 100 pM p38 alpha, 2 hours preincubation at 25° C., 250 μM ATP, ATF-2 fusion protein; read-out: p38α inhibition. In a few lines: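 Phosphorylation of ATF-2 fusion protein (0.3 μg/ml) read by AlphaScreen with anti-phospho-ATF2 antibody after 1 h kinase reaction at 25 °C, initiated by 250 μM ATP. Compounds first incubated 2 h at 25 °C with 100 pM p38 alpha in pH 7.5 HEPES buffer, 1% DMSO. IC50 derived from concentration-response data.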

For assay [2], the system named is Peripheral Blood Mononuclear Cells (PBMCs), TNFα release. Kind of assay: LPS-stimulated PBMC TNFα release assay. The note with it: human PBMC, LPS (10 ng/ml), 18 h, compound 1 h before LPS; read-out: LPS-stimulated PBMC TNFα release inhibition. The assay is classed as cell-based. The gist of the method:
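TNFα in cell-free supernatant, read on MSD plates, gave % inhibition curves and IC50 (≥3 separate experiments). Healthy-donor PBMCs had 1 h compound exposure at 37 °C in 1% FBS medium, then 18 h stimulation with 10 ng/ml LPS, after a 3 h serum-free rest.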

In patent US10364245B2 (CHIESI FARMACEUTICI S.p.A., priority 2017, dated 2019) one finds IC50 data, which are given here for seven compounds.

Where a name gives a salt, the structure may show the parent alone.

T1 sequence (Q16539 whole entry): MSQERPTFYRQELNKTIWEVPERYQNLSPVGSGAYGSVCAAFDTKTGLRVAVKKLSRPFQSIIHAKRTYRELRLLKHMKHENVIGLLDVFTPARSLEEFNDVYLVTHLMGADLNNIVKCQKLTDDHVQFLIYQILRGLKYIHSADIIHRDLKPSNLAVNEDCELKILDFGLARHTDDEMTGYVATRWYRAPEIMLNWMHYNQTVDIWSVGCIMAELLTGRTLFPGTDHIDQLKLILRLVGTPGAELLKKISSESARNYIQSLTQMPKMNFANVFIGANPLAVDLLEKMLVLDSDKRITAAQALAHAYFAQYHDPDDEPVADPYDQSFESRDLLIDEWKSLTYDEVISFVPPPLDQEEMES

With `CN(CCO)CCNC(=O)c1nc(NC(=O)N[C@H]2CC[C@@H](Oc3ccc4nnc(C5(C)CCCC5)n4c3)c3ccccc32)cc(C(C)(C)C)n1` [Example 181, 4-(tert-butyl)-N-(2-((2-hydroxyethyl)(methyl)amino)ethyl)-6-(3-((1S,4R)-4-((3-(1-methylcyclopentyl)-[1,2,4]triazolo[4,3-a]pyridin-6-yl)oxy)-1,2,3,4-tetrahydronaphthalen-1-yl)ureido)pyrimidine-2-carboxamide], the values for the IC50 in assay [1] and in assay [2] were under 1 nM and 1 to 5 nM, respectively.

Turning to `CN1CCN(C(C)(C)c2nnc3ccc(O[C@@H]4CC[C@H](NC(=O)Nc5cc(C(C)(C)C)nc(C(=O)NCCO)n5)c5ccccc54)cn23)CC1` [Example 139, 4-(tert-butyl)-N-(2-hydroxyethyl)-6-(3-((1S,4R)-4-((3-(2-(4-methylpiperazin-1-yl)propan-2-yl)-[1,2,4]triazolo[4,3-a]pyridin-6-yl)oxy)-1,2,3,4-tetrahydronaphthalen-1-yl)ureido)pyrimidine-2-carboxamide], the IC50 was 1 to 10 nM in assay [1] and over 5 nM in assay [2].

Consider `CC(C)(C)c1cc(NC(=O)N[C@H]2CC[C@@H](Oc3ccc4nnc(C5(C)CCC5)n4c3)c3ccccc32)nc(C(=O)NCCN2CCOCC2)n1` [Example 109, 4-(tert-butyl)-6-(3-((1S,4R)-4-((3-(1-methylcyclobutyl)-[1,2,4]triazolo[4,3-a]pyridin-6-yl)oxy)-1,2,3,4-tetrahydronaphthalen-1-yl)ureido)-N-(2-morpholinoethyl)-pyrimidine-2-carboxamide], for which the IC50 in assay [1] was under 1 nM; in assay [2] it was over 5 nM.

Regarding `CCC(CC)c1nnc2ccc(O[C@@H]3CC[C@H](NC(=O)Nc4cc(C(C)(C)C)nc(C(=O)NCCN5CC(OC)C5)n4)c4ccccc43)cn12` [Example 6, 4-(tert-Butyl)-N-(2-(3-methoxyazetidin-1-yl)ethyl)-6-(3-((1S,4R)-4-((3-(pentan-3-yl)-[1,2,4]triazolo[4,3-a]pyridin-6-yl)oxy)-1,2,3,4-tetrahydronaphthalen-1-yl)ureido)pyrimidine-2-carboxamide], the IC50 is under 1 nM in assay [1] and 1 to 5 nM in assay [2].

As to `CC(C)(C)c1cc(NC(=O)N[C@H]2CC[C@@H](Oc3ccc4nnc(C(C)(C)C)n4c3)c3ccccc32)nc(C(=O)NCCCN2CCCOCC2)n1` [Example 111, N-(3-(1,4-Oxazepan-4-yl)propyl)-4-(tert-butyl)-6-(3-((1S,4R)-4-((3-(tert-butyl)-[1,2,4]triazolo[4,3-a]pyridin-6-yl)oxy)-1,2,3,4-tetrahydronaphthalen-1-yl)ureido)pyrimidine-2-carboxamide partial formate salt], the results for the IC50 in assay [1] and in assay [2] were under 1 nM and over 5 nM, respectively.

For `CC(C)(C)c1cc(NC(=O)N[C@H]2CC[C@@H](Oc3ccc4nnc(C(C)(C)C)n4c3)c3ccccc32)cc(C(=O)NCCN2CCC(O)CC2)n1` [Example 9, 6-(tert-Butyl)-4-(3-((1S,4R)-4-((3-(tert-butyl)-[1,2,4]triazolo[4,3-a]pyridin-6-yl)oxy]-1,2,3,4-tetrahydronaphthalen-1-yl}ureido)-N-(2-(4-hydroxypiperidin-1-yl)ethyl)picolinamide], the IC50 in assay [1] was under 1 nM; in assay [2], 1 to 5 nM.

With `CC[C@H](C)c1nnc2ccc(O[C@@H]3CC[C@H](NC(=O)Nc4cc(C(C)(C)C)nc(C(=O)NCCN5CC(OC)C5)n4)c4ccccc43)cn12` [Example 169, 4-(tert-butyl)-6-(3-((1S,4R)-4-((3-((S)-sec-butyl)-[1,2,4]triazolo[4,3-a]pyridin-6-yl)oxy)-1,2,3,4-tetrahydronaphthalen-1-yl)ureido)-N-(2-(3-methoxyazetidin-1-yl)ethyl)pyrimidine-2-carboxamide], the IC50 is under 1 nM in assay [1] and 1 to 5 nM in assay [2].
